Source: patent US5447931A, “New therapeutic use of heterocyclylpiperazines as 5-HT3 agonists and new compounds” (Sanofi, priority 1992, dated 1995)

Test system: 5-HT3 receptors
Assay: Bezold-Jarisch effect (reduction of heart rate) in the anesthetized rat, intravenous administration
Format: in vivo, Sprague-Dawley rats
Conditions: antagonist against the heart rate reduction by compounds of formula (I)

| SMILES | inhibition by antagonist of the Bezold-Jarisch effect evoked by compounds of formula (I) |
| --- | --- |
| CN1[C@@H]2CC[C@H]1C[C@@H](OC(=O)c1c[nH]c3ccccc13)C2 [ICS 205-930] | inhibited |
| COc1cc(N)c(Cl)cc1C(=O)NC1CN2CCC1CC2 (centres unmarked) [zacopride] | inhibited |
